{
  "source": "patent US7968526B2",
  "about": "“Antisense oligonucleotides directed to ribonucleotide reductase R2 and uses thereof in the treatment of cancer” (Lorus Therapeutics Inc., priority 2003, dated 2011)",
  "key": {"[1]": {"system": "A2058 human melanoma cells", "test": "A2058 melanoma xenograft in CD-1 nude mice, combination with DTIC (1.6)", "format": "in vivo, human cells in mice", "conditions": "SEQ ID NO:1 10 mg/kg i.v. every other day, DTIC 80 mg/kg i.v. days 6-10", "experimental": "After 52 days the mice were sacrificed and the tumours weighed. […] Mitoxantrone was administered intravenously once at the beginning of the treatments at a dose of 2 mg/kg (FIG. 4A) or once a week for four weeks at a reduced dose of 0.8 mg/kg (FIG. 4B). All treatments were stopped at day 50 (FIG. 4A) or 48 (FIG. 4B), respectively. […] Mitoxantrone was administered intravenously once at the beginning of the treatments at a dose of 2 mg/kg (FIG. 5A) or once a week for four weeks at a reduced dose of 0.8 mg/kg (FIG. 5B). All treatments were stopped at day 42 (FIG. 5A) or 38 (FIG. 5B), respectively. […] A2058 is a metastatic melanoma cell line. […] All treatments were stopped at day 24. […] Taxol was administered intravenously once a week at a dose of 10 mg/kg for three (FIG. 7A) or four weeks (FIG. 7C). Doxorubicin was administered intravenously once a week at a dose of 5 mg/kg for first three weeks (FIG. 7A) or for two weeks (FIG. 7C). All treatments were stopped at day 33 (FIG. 7A) or at day 26 (FIG. 7C), respectively. […] In FIG. 7C, antitumour activities were estimated by the inhibition of tumour volume, which was measured with calipers. Each point represents mean tumour volume calculated from 10 animals per experimental group. […] Taxol was administered intravenously once a week for first three weeks and intraperitoneally once a week for next two weeks at a dose of 10 mg/kg. Cisplatin was administered intravenously once a week for first three weeks and intraperitoneally once a week for next two weeks at a dose of 4 mg/kg. All treatments were stopped at day 40. Antitumour activities were estimated by the inhibition of tumour volume, which was measured with caliper. Each point represents mean tumour volume calculated from 9 animals per experimental group."}, "[2]": {"system": "A498 human kidney cancer cells", "test": "A498 kidney tumour xenograft in SCID mice, controls and chemotherapeutics (Example 7)", "format": "in vivo, human cells in mice", "conditions": "oligonucleotides 10 mg/kg/2 days i.v., 5-FU 13 mg/kg/day×5, vinblastine 1 mg/kg/week, gemcitabine 100 mg/kg/week", "from_the_text": "CD-1 athymic female nude mice, BALB/c nu/nu nude mice, SCID, and SCID beige mice were purchased from Charles River Laboratories (Montreal, Canada) and experiments were typically initiated when the mice were 6-7 weeks old. […] Each experimental group typically contained 10 mice. After the size of tumour reached a mean tumour volume of 50-100 mm^3, treatment was initiated. […] Anti-tumour activity was estimated by the measurement of tumour volume with a calliper at two-three day intervals. Tumour volume was calculated by a formula L×W×H/2, where L indicates length, W indicates width and H indicates height. Within 24 hours after the last treatment, the animals were sacrificed and tumour and body weights were measured. Results of statistical analyses of the data are presented as P values in the figure legends.\nThree additional treatment groups received: 5-FU (13 mg/kg/day×5), vinblastine (1 mg/kg/week) and gemcitabine (100 mg/kg/week). […] Caliper measurements at 1-week intervals were used to calculate tumour volumes. Each point in FIG. 28C represents mean tumour volume calculated from 10 animals per experimental group (with the exception of SEQ ID NO: 1 which was 8 animals). […] After 54 days the mice were sacrificed and the A498 tumours weighed. Each bar represents the mean tumour weight and standard error calculated for each treatment group."}, "[3]": {"system": "mouse fibrosarcoma (R3) cells", "test": "Experimental metastasis of R3 cells treated ex vivo, lung nodules in C3H mice (4.1)", "conditions": "for Formation of lung colonies / nodules: R3 cells treated with 0.2 μM + Lipofectin for 4 hr before i.v. injection into C3H mice", "experimental": "• 4.1 Experimental metastasis of mouse fibrosarcoma (R3) cells treated with different antisense oligonucleotides in a syngenetic model was estimated as follows. Aliquots of R3 cell suspension were seeded into 100 mm tissue culture dishes at a density of 2×10^6 and incubated overnight at 37° C. in α-MEM medium supplemented with 10% FBS. Cells were washed once in 10 ml of PBS and treated with 0.2 μM of SEQ ID NO: 1 in the presence of cationic lipid (Lipofectin reagent, final concentration, 10 μg/ml, Gibco BRL) for 4 hr. Cells were treated with either saline alone (C) or lipofectin alone (RE) as controls. Oligonucleotide was removed by washing the cells once with PBS and the cells were trypsinized. Cells were then collected by centrifugation, and approximately 1×10^5 cells suspended in 0.2 ml of PBS were injected into the tail veins of 10 week-old C3H female mice. Estimates of the number of lung tumours were made 20 days later, after excised lungs from individual mice were stained with picric acid dye solution (75% picric acid, 20% formaldehyde, 5% glacial acetic acid). Bars represent mean number of tumour nodules in lungs obtained from 4 to 5 animals per experimental group. […] Aliquots of C8161 cell suspension were seeded into 100 mm tissue culture dishes at a density of 2×10^6 and incubated overnight at 37° C. in α-MEM medium supplemented with 10% FBS. Cells were washed once in 10 ml of PBS and treated with 0.2 μM of SEQ ID NO: 1 in the presence of cationic lipid (Lipofectin reagent, final concentration, 10 μg/ml, Gibco BRL) for 4 hr. Cells were treated with lipofectin alone (CONTROL) as a control. SEQ ID NO:1 was removed by washing the cells once with PBS and the cells were trypsinized. Cells were then collected by centrifugation, and approximately 1×10^5 cells suspended in 0.2 ml of PBS were injected into the tail veins of 6-8 week-old CD-1 athymic female nude mice. Estimates of the number of lung tumours were made 4 weeks later, after excised lungs from individual mice were stained with picric acid dye solution (75% picric acid, 20% formaldehyde, 5% glacial acetic acid). […]"}},
  "note": "“Also recorded” adds a separate entry of the source.",
  "data": [
    {"substance": "5′-GGCTAAATCGCTCCACCAAG-3′ (all phosphorothioate, sugars by position and methylation of C not given here) [SEQ ID NO: 1, fully phosphorothioated antisense oligonucleotide that hybridizes to the coding region of R2 mRNA]", "values": [
      {"measurement": "Tumour weight as % of saline control", "setting": "[1]; A2058 (melanoma), CD-1", "value": 20, "unit": "%"},
      {"measurement": "Antitumour effect (tumour weight, FIG. 6)", "setting": "[1]; A2058, CD-1 nude mice", "value": "significant delay of tumour growth compared to saline control; also recorded: superior to the inhibitory effects observed with DTIC alone"},
      {"measurement": "Effect on tumour growth (volume and weight)", "setting": "[2]", "value": "dramatic inhibition in growth of Caki-1 and A498 renal tumours; also recorded: superior to any of these compounds"},
      {"measurement": "Decrease in the number of tumour metastases to lungs", "setting": "[3]; Mouse Fibrosarcoma (ex vivo)", "value": "Decrease by approximately 65% in the number"},
      {"measurement": "Formation of lung colonies / nodules", "setting": "[3]", "value": "significantly reduced the formation of lung colonies"},
      {"measurement": "Formation of lung colonies / nodules", "setting": "[3]; listed as SEQ ID NO:1", "value": "significantly reduces the extent of lung nodule formation"}
    ]}
  ]
}
